Source: US20250319032A1, “PHARMACEUTICAL COMPOSITIONS OF RIBOCICLIB” (Novartis AG, priority 2024, published 2025)

Key:
[1] = DMP433 (N-nitroso-ribociclib) content in ribociclib base (B10) and ribociclib succinate (B12, drug substance) batches and process experiments, LC-MS/MS or HPLC-HRMS; assay type: physicochemical; details: for DMP433 [ppm] LOQ (0.0625 ppm) / DMP433 [ppm], result in brackets (extrapolation, estimate of actual value below LOQ): ribociclib base (LEE011 B10); for DMP433 in LEE011 B12: laboratory scale salt formation; for DMP433 in LEE011-B12 (IP): nitrite in IPA 1.6 ppb; for DMP433 (LOQ: 30 ppb): LEE011-B10, laboratory scale 30 g experiments
Description: The method of testing for the presence and/or total amount of nitrosamines (such as the presence and/or total amount of N-nitroso-ribociclib in free or salt form) that is used in the methods of the invention may be any method which allows for the detection of nitrosamines in a composition. For example, the method may involve the Griess test described above. In such a method, the nitrosamines may be first denitrosated (e.g., by photolysis) to form a nitrite, which is then detected in the Griess test. Alternatively, the method may include high performance liquid chromatography (HPLC)- and/or gas chromatography (GC)-mass spectroscopy. An example of a method of testing for the presence and amount of nitrosamines (namely N-nitroso-ribociclib) is provided herein as Example 14. […]
2.7. […] Dissolve the substance using vortex and fill to volume with solvent (50% MeOH). • 3. Filter through 0.2 μm PVDF (polyvinylidene difluoride) or PTFE (polytetrafluoroethylene) filter into a HPLC amber vial, discard the first 0.5 ml.
A calibration curve for DMP433 is created, using calibration standard solutions L1-L6, and expressing the relationship between responses (peak areas) and standard concentrations (ng/ml). For L1, the average of 6 injections is used. Linear regression is weighed with 1/amount. […]

[2] = Nitrite content (ion chromatography; LC-FLD with DAN derivatisation; Griess test) in drug substance, intermediates, reagents, solvents, filters, excipients; assay type: physicochemical; details: for Nitrite in LEE011 B12: laboratory scale salt formation; for Nitrite (LOQ: 0.1 ppm) / Nitrite, value in brackets below LOQ: LEE011-B10, laboratory scale 30 g experiments; for Nitrite (ppb): LEE011-DS, further testing
Description: The method of testing for the presence and/or total amount of nitrites that is used in the methods of the invention may be any method which allows for the detection and/or quantitation of nitrites in a composition. For example, the method may be the Griess test. The Griess test allows for the detection and analysis of nitrite by the formation of a red-pink colour upon treatment of a nitrite-containing sample with the Griess reagent. The Griess reagent consists of two components in an acidic solution: an aniline derivative and a coupling agent. The most common arrangements use sulfanilamide and N-(1-naphthyl)ethylenediamine. For example 0.2% N-(1-naphthyl)ethylenediamine dihydrochloride and 2% sulfanilamide in 5% phosphoric acid may be used as a Griess reagent. Other aniline derivatives that may be used in a Griess reagent include sulfanilic acid, nitroaniline, and p-aminoacetophenone.
The Griess test involves two subsequent reactions, as shown in the scheme below. When the aniline derivative (e.g., sulfanilamide) is added, the nitrite ion reacts with it in the Griess diazotization reaction to form a diazonium salt, which then reacts with N-(1-naphthyl)ethylenediamine in an azo-coupling reaction, forming a pink-red azo-dye. Using a spectrophotometer, the nitrite concentration can then be quantitatively detected.
Additionally purified water; e.g. Milli Q • 2.
• 10 mM KH2PO4 Weigh accurately about 1.361 g of KH2PO4 into a 1 L volumetric flask, dissolve it in approximately 950 mL of additionally purified water and adjust the pH to 8.0 (with 2.7 M NaOH). Make up to the mark with additionally purified water. • 0.62 M HCl Add a few millilitres (e.g. 20 mL) of additionally purified water to a 200 mL volumetric flask, add 10.280 mL of concentrated HCl, mix and make up to the mark with additionally purified water. • 2.7 M NaOH Weigh accurately about 1.092 g of NaOH pellets into a 10 mL volumetric flask and dissolve it in additionally purified water. Cool to room temperature and make up to the mark with the same solvent. • Reagent DAN Weigh accurately about 5 mg of 2,3-diaminophthalene into a 100 mL volumetric flask and dissolve it with the solvent (methanol/water 1:1 (v/v)). Dilute up to the mark and ensure visual full dissolution. Use an amberglass flask. • Mobile phase A Mix 950 mL of 10 mM KH2PO4 solution (pH=8) and add 50 mL methanol. • Mobile phase B Methanol. • Solvent Methanol/water 1:1 (v/v), e.g. mix 2000 mL of additionally purified water and 2000 mL methanol.
• Instrument: HPLC with FLR detector; e.g. Waters Arc or equivalent • Column: C18 50×4.6 mm, 2.5 μm, e.g. XBridge C18 2.5 μm, 4.650 mm or equivalent
• Notes It is recommended to wear additional protective equipment (face mask and gloves) during weighing. • It is recommended to wash the column with 50% methanol after the analysis (example of preparation: mix 500 mL methanol and 500 m1 of additionally purified water). • It is recommended to rinse the injector with solvent after each injection. • All glassware and tools should be rinsed with additionally purified water before use. It is not recommended to leave the solutions open for a longer time before measurement. • Blank solution 1 Transfer 1 mL of solvent into a HPLC vial and perform derivatization as described below. • Blank solution 2 Transfer 10 mL of solvent into a single use glass vial and mix it on a magnetic stirrer for 30 min. Transfer the solution into a 5 mL centrifuge tube and centrifuge for 10 min at 12000 rpm. […] Fill up to the mark with solvent and mix. • (Cnitrite≈0.0005 mg/mL) • Comparison solution Transfer 10 mL of nitrite stock solution into a 500 mL volumetric flask. • (2 parallels) Fill up to the mark with solvent and mix. • Transfer 1 mL solution into a HPLC vial and perform the derivatization as described below. • (Cnitrite≈100 ppb) • Sample solution Accurately weigh about 1000 mg of the sample into a glass vial for single use and add 10 mL of solvent.

[3] = ribociclib base (LEE011 B10), ion chromatography
[4] = additional batches of ribociclib base LEE011-B10 (IP-1)
[5] = nitrite in iPrOH <5 ppb (1.3 ppb extrapolated)
[6] = nitrite in iPrOH <5 ppb (3.1 ppb extrapolated)

DMP433 [ppm] LOQ (0.0625 ppm) [1] | DMP433 [ppm], result in brackets (extrapolation, estimate of actual value below LOQ) [1] [ppm] | Nitrite [ppm] LOD (1 ppm) [2, 3] | DMP433 (LOQ: 30 ppb) [1] [ppb] | Nitrite (LOQ: 0.1 ppm) [2] [ppm] | Nitrite, value in brackets below LOQ [2] [ppm] | Compound | further results
 |  |  | 55.8 | < 0.1 | 0.08 | CN(C)C(=O)c1cc2cnc(Nc3ccc(N4CCNCC4)cn3)nc2n1C1CCCC1 [Batch 805193A095] | 
 |  |  | 70.5 | < 0.1 | 0.05 | CN(C)C(=O)c1cc2cnc(Nc3ccc(N4CCNCC4)cn3)nc2n1C1CCCC1 [Batch 805193A096] | 
 |  |  | 73.9 | < 0.1 | 0.07 | CN(C)C(=O)c1cc2cnc(Nc3ccc(N4CCNCC4)cn3)nc2n1C1CCCC1 [Batch 805193A097] | 
 |  |  | 78.8 | < 0.1 | 0.07 | CN(C)C(=O)c1cc2cnc(Nc3ccc(N4CCNCC4)cn3)nc2n1C1CCCC1 [Batch 805193A098] | 
LOQ | 0.047 | <LOD |  |  |  | CN(C)C(=O)c1cc2cnc(Nc3ccc(N4CCNCC4)cn3)nc2n1C1CCCC1 [Batch 923037A002] | 

More lines, now with the values behind:

Compound | DMP433 [ppm] LOQ (0.0625 ppm) [1] | DMP433 [ppm], result in brackets (extrapolation, estimate of actual value below LOQ) [1] [ppm] | Nitrite [ppm] LOD (1 ppm) [2, 3] | DMP433 (LOQ: 30 ppb) [1] [ppb] | Nitrite (LOQ: 0.1 ppm) [2] [ppm] | Nitrite, value in brackets below LOQ [2] [ppm] | further results
CN(C)C(=O)c1cc2cnc(Nc3ccc(N4CCNCC4)cn3)nc2n1C1CCCC1 [Batch 805193A072] | LOQ | 0.060 | <LOD |  |  |  | 
CN(C)C(=O)c1cc2cnc(Nc3ccc(N4CCNCC4)cn3)nc2n1C1CCCC1 [Batch 805193A073] | LOQ | 0.030 | <LOD |  |  |  | 
CN(C)C(=O)c1cc2cnc(Nc3ccc(N4CCNCC4)cn3)nc2n1C1CCCC1 [Batch 805193A074] | LOQ | 0.029 | <LOD |  |  |  | 
CN(C)C(=O)c1cc2cnc(Nc3ccc(N4CCNCC4)cn3)nc2n1C1CCCC1 [Batch 805193A077] |  |  |  |  |  |  | DMP433 [ppb] [1, 4]: 51 ppb; Nitrite [ppm] LOD (1 ppm) [2, 4]: <LOD
CN(C)C(=O)c1cc2cnc(Nc3ccc(N4CCNCC4)cn3)nc2n1C1CCCC1 [Batch 805193A078] |  |  |  |  |  |  | DMP433 in LEE011-B10 ([1]; B10 starting material of resin experiments): DMP433: 92 ppb; DMP433 [ppb] [1, 4]: 78 ppb; DMP433 in LEE011 B12 ([1]; nitrite in iPrOH 119.6 ppb): 14238 ppb; DMP433 in LEE011 B12 ([1]; nitrite in iPrOH 162.7 ppb): 18011 ppb; DMP433 in LEE011 B12 [1, 5]: 995 ppb; DMP433 in LEE011 B12 [1, 6]: 1513 ppb; DMP433 in LEE011-B12 (IP) ([1]; resin treatment of B10/IPA solution): 220 ppb; DMP433 in LEE011-B12 (IP) ([1]; resin treatment only IPA (nitrite carryover from B10 remained)): 528 ppb; Nitrite [ppm] LOD (1 ppm) [2, 4]: <LOD; Nitrite in LEE011 B12 [2, 5]: 448 ppb; Nitrite in LEE011 B12 [2, 6]: 326 ppb
CN(C)C(=O)c1cc2cnc(Nc3ccc(N4CCNCC4)cn3)nc2n1C1CCCC1.O=C(O)CCC(=O)O [Batch 833268A258] |  |  |  |  |  |  | DMP433 [ppb] ([1]; LEE011-DS, further testing): 380 ppb; Nitrite (ppb) [2]: 369 ppb
CN(C)C(=O)c1cc2cnc(Nc3ccc(N4CCNCC4)cn3)nc2n1C1CCCC1.O=C(O)CCC(=O)O [Batch 833268A259] |  |  |  |  |  |  | DMP433 [ppb] ([1]; LEE011-DS, further testing): 395 ppb; Nitrite (ppb) [2]: 284 ppb
